Where a name gives a salt, the structure may show the parent alone.

T1 sequence (P08581 960-1390): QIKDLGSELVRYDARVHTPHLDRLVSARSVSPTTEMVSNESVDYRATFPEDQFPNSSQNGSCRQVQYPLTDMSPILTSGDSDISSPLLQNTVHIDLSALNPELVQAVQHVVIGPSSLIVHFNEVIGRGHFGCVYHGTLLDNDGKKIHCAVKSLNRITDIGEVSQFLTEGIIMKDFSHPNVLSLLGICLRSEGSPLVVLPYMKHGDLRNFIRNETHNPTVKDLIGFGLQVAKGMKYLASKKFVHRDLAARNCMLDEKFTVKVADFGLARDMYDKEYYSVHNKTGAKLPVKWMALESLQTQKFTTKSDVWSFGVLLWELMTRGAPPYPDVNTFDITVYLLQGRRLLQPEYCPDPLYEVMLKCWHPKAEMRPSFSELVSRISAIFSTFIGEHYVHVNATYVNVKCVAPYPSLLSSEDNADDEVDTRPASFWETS

This test concerns the target T1, recombinant human c-MET kinase enzyme domain (Homo sapiens, UniProt P08581).
T1 construct: Recombinant c-Met kinase domain (amino acids 960-1390); His (N); made in house; host or cells: baculovirus expression system (insect cells; SF21 is named only for the alternative format)
Nature of the test: c-MET receptor tyrosine kinase Homogeneous Time Resolved Fluorescence assay (HTRF). The class given is biochemical. Particulars: Biological Example 1 and/or Biological Example 2. An excerpt:
Recombinant c-Met kinase domain (amino acids 960-1390) was produced in a baculovirus expression vector as an N-terminal His-tagged fusion protein and purified on a NiNTA column. The resulting purified enzyme was then used in the following c-Met Homogeneous Time Resolved Fluorescence assay (HTRF) to find compounds of the invention and to perform initial activity determinations. Specifically, this assay measures the ability of compounds of the invention to inhibit the phosphorylation of a randomly synthesized, biotinylated heterocopolymeric polypeptide composed of glutamic acid and tyrosine, with an average length of 100 aa. The assay analyzes the amount of phosphorylated polypeptide produced.
The enzymatic phosphorylation of the biotinylated heterocopolymeric polypeptide was performed in a black 384-well plate at ambient temperature in a reaction mixture containing 50 mM HEPES (pH 7.4), 5 mM MgCl2, 5 mM MnCl2, 0.01% Tween-20, and 2 mM DTT, […] recombinant human c-MET kinase enzyme domain, 37 nM biotinylated heterocopolymeric polypeptide composed of glutamic acid and tyrosine, 20 μM ATP, 1% DMSO in the absence or presence of a compound of the invention. The reaction was stopped after a 20-minute incubation by the addition of 80 mM EDTA.
The formation of phosphorylated heterocopolymeric, biotinylated polypeptide was quantified with the HTRF assay technology using an anti-phosphotyrosine antibody, PT66, conjugated to europium cryptate, mixed with a streptavidin-XL665 conjugate. Reduced or inhibited phosphorylation of the heterocopolymeric, biotinylated polypeptide prevents the anti-phosphotyrosine antibody from binding to the peptide, resulting in a loss of energy transfer to the streptavidin-XL665 conjugate.
Following the 384-well enzymatic phosphorylation reaction outlined above, the detection of phosphorylated heterocopolymeric, biotinylated polypeptide was performed by dilution of the stopped reaction mixture 2-fold with 50 mM HEPES (pH 7.0), 500 mM KF, 0.1% BSA, streptavidin-XL665 (20 nM), and anti-phosphotyrosine antibody PT66-crypate conjugate (6.4 ng/well) and incubation for four hours at ambient temperature. Plates were read in an Envision plate reader (PerkinElmer Life and Analytical Sciences, Inc., MA) simultaneously at 620 nm and 665 nm to obtain signal ratios of 665 nm/620 nm. Results of energy transfer were expressed as signal ratios of 665 nm/620 nm. Negative controls were samples without recombinant c-MET or c-MET treated with 100 mM EDTA.
For determination of IC50 values of particular compounds of the invention, eight serially diluted compound concentrations (at 1:3.16 dilution) were used in the assay. Controls without a compound of the invention or with a reference compound were run in parallel in the same assay plate.
For orientation: Time-resolved FRET reads energy transfer from a long-lived donor to a nearby acceptor.
As usually defined, the IC50 is the concentration that gives 50% inhibition. With `CC1=C(C#N)C(c2ccc3[nH]nc(Cl)c3c2)C(C#N)=C(C)N1C` [compound 298, 4-(3-chloro-1H-indazol-5-yl)-1,4-dihydro-1,2,6-trimethyl-3,5-pyridinedicarbonitrile], the IC50 was less than 0.1 µM.

Regarding `COC(=O)c1ccc(C2=C(C#N)C(c3ccc4[nH]ncc4c3)C(C#N)=C(C)N2)cc1` (centres unmarked) [compound 257, 4-[3,5-dicyano-1,4-dihydro-4-(1H-indazol-5-yl)-6-methyl-2-pyridinyl]-benzoic acid methyl ester], the IC50 is less than 0.1 µM.

For the compound `CC1=C(C#N)C(c2ccc3[nH]nc(NCCO)c3c2)C(C#N)=C(C)N1` [compound 118, 1,4-dihydro-4-[3-[(2-hydroxyethyl)amino]-1H-indazol-5-yl]-2,6-dimethyl-3,5-pyridinedicarbonitrile], the IC50 is less than 0.1 µM.

Take `CC1=C(C#N)C(c2ccc3[nH]nc(-c4ccc(N5CCN(C)CC5)cc4)c3c2)C(C#N)=C(C)N1` [compound 140, 1,4-dihydro-2,6-dimethyl-4-[3-[4-(4-methyl-1-piperazinyl)phenyl]-1H-indazol-5-yl]-3,5-pyridinedicarbonitrile]: the IC50 is less than 0.1 µM.

Consider `CC1=C(C#N)C(c2ccc3[nH]nc(/C(C)=N/O)c3c2)C(C#N)=C(C)N1` [compound 160, 1,4-dihydro-4-[3-[(1E)-1-(hydroxyimino)ethyl]-1H-indazol-5-yl]-2,6-dimethyl-3,5-pyridinedicarbonitrile], for which the IC50 was less than 0.1 µM.

Regarding `CC1=C(C#N)C(c2ccc3[nH]ncc3c2)C(C#N)=C(c2ccncc2)N1` (centres unmarked) [compound 265, 1,4-dihydro-4-(1H-indazol-5-yl)-6-methyl-[2,4′-bipyridine]-3,5-dicarbonitrile], the IC50 is less than 0.1 µM.

With `CC1=C(C#N)C(c2cccc(NC(=O)c3cccnc3)c2)C(C#N)=C(C)N1` [compound 38, N-[3-(3,5-dicyano-1,4-dihydro-2,6-dimethyl-4-pyridinyl)phenyl]-3-pyridinecarboxamide], the IC50 is 0.5 to 2.5 µM.

As for `CC1=C(C#N)C(c2ccc3c(c2)c(N)nn3C(=O)c2ccccc2)C(C#N)=C(C)N1` [compound 95, 4-(3-amino-1-benzoyl-1H-indazol-5-yl)-1,4-dihydro-2,6-dimethyl-3,5-pyridinedicarbonitrile], the IC50 was less than 0.1 µM.

As to `CC1=C(C#N)C(c2ccc3[nH]nc(-c4ccc(CN(C)C)cc4)c3c2)C(C#N)=C(C)N1` [compound 138, 4-[3-[4-[(dimethylamino)methyl]phenyl]-1H-indazol-5-yl]-1,4-dihydro-2,6-dimethyl-3,5-pyridinedicarbonitrile], the IC50 was less than 0.1 µM.

As for `CNC(=O)c1cccc(C2C(C#N)=C(C)NC(c3ccccc3)=C2C#N)c1` (centres unmarked) [compound 240, 3-(3,5-dicyano-1,4-dihydro-2-methyl-6-phenyl-4-pyridinyl)-N-methyl-benzamide], the IC50 was in the range of 0.5 to 2.5 µM.

For the compound `COC(=O)c1cccc(C2C(C#N)=C(C)NC(c3ccccc3)=C2C#N)c1` (centres unmarked) [compound 219, 3-(3,5-dicyano-1,4-dihydro-2-methyl-6-phenyl-4-pyridinyl)-benzoic acid, methyl ester], the concentration for half-maximal inhibition (IC50) is less than 0.1 µM.

As to `CC1=C(C#N)C(c2ccc3[nH]nc(-c4cnn(C)c4)c3c2)C(C#N)=C(C)N1` [compound 174, 1,4-dihydro-2,6-dimethyl-4-[3-(1-methyl-1H-pyrazol-4-yl)-1H-indazol-5-yl]-3,5-pyridinedicarbonitrile], the IC50 was less than 0.1 µM.

Consider `CNC(=O)Nc1n[nH]c2ccc(C3C(C#N)=C(C)NC(C)=C3C#N)cc12` [compound 147, N-[5-(3,5-dicyano-1,4-dihydro-2,6-dimethyl-4-pyridinyl)-1H-indazol-3-yl]-N′-methyl-urea], for which the IC50 is less than 0.1 µM.

On to `CC1=C(C#N)C(c2ccc3[nH]nc(NCc4ccccc4)c3c2)C(C#N)=C(C)N1` [compound 105, 1,4-dihydro-2,6-dimethyl-4-[3-[(phenylmethyl)amino]-1H-indazol-5-yl]-3,5-pyridinedicarbonitrile], for which the IC50 is less than 0.1 µM.

Turning to `CC1=C(C#N)C(c2ccc3[nH]nc(-c4cn[nH]c4)c3c2)C(C#N)=C(C)N1` [compound 173, 1,4-dihydro-2,6-dimethyl-4-[3-(1H-pyrazol-4-yl)-1H-indazol-5-yl]-3,5-pyridinedicarbonitrile], the IC50 was less than 0.1 µM.

In the case of `CC1=C(C#N)C(c2ccc3[nH]nc(C)c3c2)C(C#N)=C(C)N1C1CC1` [compound 301, 1-cyclopropyl-1,4-dihydro-2,6-dimethyl-4-(3-methyl-1H-indazol-5-yl)-3,5-pyridinedicarbonitrile], the IC50 is less than 0.1 µM.

Turning to `CCN1C(C)=C(C#N)C(c2ccc3[nH]nc(N)c3c2)C(C#N)=C1C` [compound 294, 1-ethyl-4-(3-amino-1H-indazol-5-yl)-1,4-dihydro-2,6-dimethyl-3,5-pyridinedicarbonitrile], the IC50 is less than 0.1 µM.

Take `CC1=C(C#N)C(c2ccc3[nH]nc(C(=O)NCCN4CCCC4)c3c2)C(C#N)=C(C)N1` [compound 124, 5-(3,5-dicyano-1,4-dihydro-2,6-dimethyl-4-pyridinyl)-N-[2-(1-pyrrolidinyl)ethyl]-1H-indazole-3-carboxamide]: the IC50 is less than 0.1 µM.

For the compound `CNC(=O)c1n[nH]c2ccc(C3C(C#N)=C(C)NC(C)=C3C#N)cc12` [99.1, 5-(3,5-dicyano-1,4-dihydro-2,6-dimethyl-4-pyridinyl)-N-methyl-1H-indazole-3-carboxamide, TFA salt], the IC50 was less than 0.1 µM.

Consider `CC1=C(C#N)C(c2ccc3[nH]ncc3c2)C(C#N)=C(C)N1` [compound 80, 1,4-dihydro-4-(1H-indazol-5-yl)-2,6-dimethyl-3,5-pyridinedicarbonitrile], for which the IC50 was less than 0.1 µM.

Turning to `CC1=C(C#N)C(c2ccc3[nH]nc(-c4ncc[nH]4)c3c2)C(C#N)=C(C)N1` [compound 170, 1,4-dihydro-4-[3-(1H-imidazol-2-yl)-1H-indazol-5-yl]-2,6-dimethyl-3,5-pyridinedicarbonitrile], the IC50 is less than 0.1 µM.

For `COC(=O)Nc1ccc(-c2n[nH]c3ccc(C4C(C#N)=C(C)NC(C)=C4C#N)cc23)cc1` [compound 123, [4-[5-(3,5-dicyano-1,4-dihydro-2,6-dimethyl-4-pyridinyl)-1H-indazol-3-yl]-phenyl]-carbamic acid methyl ester], the IC50 is 0.5 to 2.5 µM.

Consider `CC1=C(C#N)C(c2ccc3[nH]nc(N)c3c2)C(C#N)=C(C)N1Cc1ccccc1` [compound 293, 4-(3-amino-1H-indazol-5-yl)-1,4-dihydro-2,6-dimethyl-1-(phenylmethyl)-3,5-pyridinedicarbonitrile], for which the half-maximal inhibitory concentration (IC50) was less than 0.1 µM.

As to `CC1=C(C#N)C(c2ccc3[nH]nc(N)c3c2)C(C#N)=C(c2cc(C)oc2C)N1` (centres unmarked) [compound 281, 4-(3-amino-1H-indazol-5-yl)-2-(2,5-dimethyl-3-furanyl)-1,4-dihydro-6-methyl-3,5-pyridinedicarbonitrile], the IC50 was less than 0.1 µM.

For the compound `CCN(CC)CC(=O)Nc1n[nH]c2ccc(C3C(C#N)=C(C)NC(C)=C3C#N)cc12` [compound 141, N-[5-(3,5-dicyano-1,4-dihydro-2,6-dimethyl-4-pyridinyl)-1H-indazol-3-yl]-2-(diethylamino)-acetamide], the 50% inhibitory concentration (IC50) was 0.5 to 2.5 µM.

Consider `CC1=C(C#N)C(c2ccc3[nH]nc(-c4cnco4)c3c2)C(C#N)=C(C)N1` [compound 177, 1,4-dihydro-2,6-dimethyl-4-[3-(5-oxazolyl)-1H-indazol-5-yl]-3,5-pyridinedicarbonitrile], for which the IC50 was less than 0.1 µM.

Turning to `CC1=C(C#N)C(c2ccc3[nH]ncc3c2)C(C#N)=C(c2ccnc(Cl)c2)N1` (centres unmarked) [compound 276, 2′-chloro-1,4-dihydro-4-(1H-indazol-5-yl)-6-methyl-[2,4′-bipyridine]-3,5-dicarbonitrile], the IC50 was less than 0.1 µM.

In the case of `CC1=C(C#N)C(c2cccc(C(=O)Nc3ccc(N(C)C)cn3)c2)C(C#N)=C(C)N1` [compound 63, 3-(3,5-dicyano-1,4-dihydro-2,6-dimethyl-4-pyridinyl)-N-[5-(dimethylamino)-2-pyridinyl]-benzamide], the IC50 was in the range of 0.1 to 0.5 µM.

As for `CC1=C(C#N)C(c2ccc3[nH]nc(-c4ccon4)c3c2)C(C#N)=C(C)N1` [compound 175, 1,4-dihydro-4-[3-(3-isoxazolyl)-1H-indazol-5-yl]-2,6-dimethyl-3,5-pyridinedicarbonitrile], the IC50 is less than 0.1 µM.
